In patent publication US12606561B2, “Substituted pyrazolo[1,5-a][1,3,5]triazines as CDK inhibitors” (QURIENT CO., LTD., priority 2018, dated 2026):
Where two headings read alike, the source gives them in different places.

Assays:
[1] = biological target: T1, 28 CDKs family protein kinases (Homo sapiens, UniProt P50750); test: In vitro IC50 profile for CDKs family kinase (33PanQinase Activity Assay, ProQinase); format: biochemical; settings: read-out: CDK7 selectivity profile in CDKs family, IC50
T1 construct: purchased ProQinase GmbH; host or cells: Sf9 insect cells or E. coli
Experimental: (§1) The IC50 profile of compound 11 was determined using 28 CDKs family protein kinases through ProQinase GmbH (Freiburg, Germany). All the protocol and materials had been provided by ProQinase GmbH. Briefly, in the process, 90 μl H2O were added to each well of a compound dilution plate. To minimize potential precipitation, the H2O was added to the plate only a few minutes before the transfer of the compound solutions into the assay plates. The plate was shaken thoroughly, resulting in a “compound dilution plate/10% DMSO”. The compound dilution plate(s) were discarded at the end of the working day. For the assays (see below), 5 μl solution from each well of the compound dilution plate were transferred into the assay plates. The final volume of the assay was 50 μl. All compounds were tested at 10 final assay concentrations in the range from 1×10^−05 M to 3×10^−10 M. The final DMSO concentration in the reaction cocktails was 1% in all cases. All protein kinases provided by ProQinase were expressed in Sf9 insect cells or in E. coli as recombinant GST-fusion proteins or His-tagged proteins, either as full-length or enzymatically active fragments. All kinases were produced from human cDNAs and purified by either GSH affinity chromatography or immobilized metal affinity chromatography. The purity of the protein kinases was examined by SDS-PAGE/Coomassie staining, the identity was checked by mass spectroscopy. Kinases from external vendors, Carna Biosciences Inc.; Invitrogen Corp.; and Millipore Corp., were expressed, purified and quality-controlled by virtue of the vendors readings. A radiometric protein kinase assay (33PanQinase® Activity Assay) was used for measuring the kinase activity of the 28 protein kinases. All kinase assays were performed in 96-well FlashPlates™ from PerkinElmer (Boston, MA, USA) in a 50 μl reaction volume. The reaction cocktails were incubated at 30° C. for 60 minutes. The reaction was stopped with 50 μl of 2% (v/v) H3PO4, plates were aspirated and washed two times with 200 μl 0.9% (w/v) NaCl. Incorporation of ^33Pi was determined with a microplate scintillation counter (Microbeta, Wallac). All assays were performed with a BeckmanCoulter/SAGIAN™ Core System. As part of the data evaluation the low control value from a particular plate was subtracted from the high control value as well as from all 80 “compound values” of the corresponding plate. The residual activity (in %) for each well of a particular plate was calculated by using the following formula: Res. Activity (%)=100×[(cpm of compound−low control)/(high control−low control)].

[2] = biological target: T2, 28 CDKs family protein kinases (Homo sapiens, UniProt Q9BWU1); test: as above; format: biochemical; settings: CDK19/CycC; read-out: CDK7 selectivity profile in CDKs family, IC50
T2 construct: purchased ProQinase GmbH; host or cells: Sf9 insect cells or E. coli
T2 sequence (Q9BWU1 whole entry): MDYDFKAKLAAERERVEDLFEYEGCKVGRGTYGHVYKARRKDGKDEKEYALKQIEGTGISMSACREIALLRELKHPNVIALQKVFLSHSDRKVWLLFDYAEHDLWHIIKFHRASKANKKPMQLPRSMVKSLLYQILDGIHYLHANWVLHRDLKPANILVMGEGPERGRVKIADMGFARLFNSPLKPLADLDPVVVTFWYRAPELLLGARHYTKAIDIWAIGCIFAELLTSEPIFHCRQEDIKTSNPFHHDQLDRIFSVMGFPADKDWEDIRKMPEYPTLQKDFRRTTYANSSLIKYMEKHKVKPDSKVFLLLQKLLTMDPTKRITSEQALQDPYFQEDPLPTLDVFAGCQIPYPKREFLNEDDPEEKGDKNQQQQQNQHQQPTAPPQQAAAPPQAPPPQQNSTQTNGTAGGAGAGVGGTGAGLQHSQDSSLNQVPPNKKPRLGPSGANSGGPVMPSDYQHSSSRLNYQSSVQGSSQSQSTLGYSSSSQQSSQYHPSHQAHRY
T2 sequence (P24863 whole entry partner): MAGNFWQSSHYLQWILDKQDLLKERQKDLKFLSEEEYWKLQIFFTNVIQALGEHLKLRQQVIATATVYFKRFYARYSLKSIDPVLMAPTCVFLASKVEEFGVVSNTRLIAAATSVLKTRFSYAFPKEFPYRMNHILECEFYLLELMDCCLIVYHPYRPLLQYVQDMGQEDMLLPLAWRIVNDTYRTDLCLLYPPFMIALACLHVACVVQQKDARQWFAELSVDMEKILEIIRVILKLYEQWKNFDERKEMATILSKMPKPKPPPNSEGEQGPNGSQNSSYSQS
Experimental: as §1

[3] = biological target: T3, 28 CDKs family protein kinases (Homo sapiens, UniProt P24941); test: as above; format: biochemical; settings: read-out: CDK7 selectivity profile in CDKs family, IC50
T3 construct: purchased ProQinase GmbH; host or cells: Sf9 insect cells or E. coli
Experimental: as §1

[4] = biological target: T4, 28 CDKs family protein kinases (Homo sapiens, UniProt P11802); test: as above; format: biochemical; settings: read-out: CDK7 selectivity profile in CDKs family, IC50
T4 construct: purchased ProQinase GmbH; host or cells: Sf9 insect cells or E. coli
Experimental: as §1

[5] = tested on: OVCAR-3; test: OVCAR-3 viability assay (CellTiter-Glo, 72 hours); format: cell-based; settings: Homo sapiens; OVCAR-3 cells
Method in brief: (§2)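 RPMI-1640/10% FBS; plate cells (MV4-11 1×10^4, OVCAR-3 5×10^3, A2780 1×10^3 per well); 24 h later add compound 0.0015–10 uM; 72 h, 37° C; CellTiter-Glo luminescence, duplicate wells.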

[6] = tested on: A2780; test: A2780 viability assay (CellTiter-Glo, 72 hours); format: cell-based; settings: Homo sapiens; A2780 cells
Method in brief: as §2

Measured: IC50

CC(C)c1cnn2c(NCc3ccccc3-c3nccc4cc(NC(=O)/C=C/CN(C)C)ccc34)nc(N3CCC(N)CC3)nc12 [Compound 11]
> 10 µM: [1]; CDK9/CycK | [1]; CDK9/CycT1 | [2] | [3]; CDK2/CycA2 | [3]; CDK2/CycD1 | [3]; CDK2/CycE1 | [4]; CDK4/CycD1 | [4]; CDK4/CycD2 | [4]; CDK4/CycD3
< 1 µM: [5] | [6]
